{"source": "patent US20230345944A1", "about": "“Purified and Enhanced Hydrogen Peroxide Disinfecting Solution for the Rapid Inactivation of COVID-19 and Other Pathogens” (Alira Health Boston LLC, priority 2021, published 2023)", "origin": "cited, not measured here", "system": "bacteria", "settings": "hydrogen peroxide on its own", "data": [{"compound": "OO", "note": "[hydrogen peroxide]", "values": [{"measurement": "minimal inhibitory concentration (MIC)", "result": "about 1 mM"}]}]}
